{"source": "patent US20080108603A1", "about": "“COMBINATION THERAPY FOR THE TREATMENT OF PAIN” (priority 2006, published 2008)", "key": {"male Sprague-Dawley rats": {"test_system": "male Sprague-Dawley rats", "experiment": "Neuropathic pain model (Chung model, spinal nerve ligation, withdrawal threshold to von Frey filaments)", "type": "in vivo, rat", "conditions": "for anti-allodynic effect (withdrawal threshold): single intrathecal injection, at least 4 weeks after spinal nerve ligation, up to 20 hr", "excerpt": "Spinal Nerve Ligation: After Animal Care and Use Committee approval, male Sprague-Dawley rats (Harlan, Indianapolis, Ind., USA) weighing 180-200 g undergo anesthesia as previously described by Kim and Chung (Pain 1992, 50, 355-363). Briefly, under general anesthesia with inhalational halothane, the left L5 and L6 spinal nerves are identified through a small laminotomy and tightly ligated. Approximately one week later, an intrathecal catheter is placed under general anesthesia by insertion under direct vision of a polyethylene catheter through a small slit in the dura at the cisterna magnum, and advanced 8.5 cm such that the catheter tip resides in the lower lumbar intrathecal space. Animals are studied approximately one week later. Ligation of the lumbar spinal nerves results in a primarily unilateral increase in the sensitivity to light touch on the operated side. Sensitivity is assessed via application of calibrated von Frey filaments. The withdrawal threshold is determined using an up down method as previously described by Chaplan et al. (J. Neurosci. Methods 1994, 53, 55-63).\nExperimental Design: Animals receive, at least 4 weeks after spinal nerve ligation surgery, and at least 1 week after intrathecal catheter insertion, single injections of vehicle (β-cyclodextrin) or the drug substance, using a randomized and blinded protocol. Withdrawal thresholds are determined at intervals for up to 20 hr after injection."}, "adenosine A1 receptors": {"target": "T1, adenosine A1 receptors (Rattus norvegicus, UniProt P25099)", "T1 sequence (P25099 1-326)": "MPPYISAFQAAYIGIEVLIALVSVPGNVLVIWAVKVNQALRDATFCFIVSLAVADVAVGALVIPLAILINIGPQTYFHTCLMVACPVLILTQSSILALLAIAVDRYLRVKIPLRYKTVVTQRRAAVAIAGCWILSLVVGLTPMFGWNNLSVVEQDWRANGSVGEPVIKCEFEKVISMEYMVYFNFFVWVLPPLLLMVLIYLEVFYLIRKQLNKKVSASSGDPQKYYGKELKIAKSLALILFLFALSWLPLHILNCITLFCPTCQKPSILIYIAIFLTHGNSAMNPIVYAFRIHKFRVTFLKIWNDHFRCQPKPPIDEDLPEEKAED", "conditions": "from Li et al., Pan et al., U.S. Pat. No. 6,248,774 and 6,489,356; cited from earlier work"}, "adult male rats": {"test_system": "adult male rats", "experiment": "Postincisional hypersensitivity model of postoperative pain (paw incision, withdrawal threshold to von Frey filaments)", "type": "in vivo, rat", "conditions": "intrathecal (i.t.) single drug; for anti-hypersensitivity effect (mechanical hypersensitivity), single drug: 24 h after paw incision surgery, 210 min observation", "procedure": "Animal preparation: Following Animal Care and Use Committee approval, an intrathecal (i.t.) catheter with tip in the lumbar space is inserted as previously described in adult male rats weighing 250 g (Yaksh and Rudy, Physiol Behav. 1976, 7, 1032-1036). One week following the insertion of the i.t. catheter, paw incision surgery is performed as previously described (Brennan et al., Pain 1996, 64, 493-501). Briefly, animals are anesthetized with halothane, and a 1-cm long incision is made in the plantar aspect of the left hind paw starting 0.5 cm from the edge of the heel toward the toe after sterile preparation with 70% ethanol. The plantaris muscle is elevated and incised longitudinally. The wound is closed with 2 mattress sutures of 5.0 silk. Subsequently, withdrawal threshold to von Frey filaments is determined one day after surgery (Chaplanet al., J. Neurosci. Methods, 1994, 53, 55-63). For all testing but pilot dose ranging studies, investigators are blinded to study drug administration. A cut off value of 22 g is used.\nExperimental Design: Twenty-four hours after paw incision surgery, single drugs and their combinations are studied: T-62, morphine and NBQX.\nSingle drug injection: For single drug administration, a volume containing 5 μL drug is used, followed by 10 μL of saline. The anti-hypersensitivity effects for single drugs at three doses with logarithmic spacing are studied over a 210 min observation period with testing at 30 min interval. Dose response curves are first constructed, and ED40 values for single drugs are then determined at the time of peak effect.\nDrug interaction: For the combination of T-62 with morphine and NBQX, two injections are performed since the time of peak effect for morphine and NBQX is 30 min earlier than that of T-62 (T-62 is injected 30 min before drug injections). Paw withdrawal thresholds are determined before surgery, before drug injection, and 30, 60, 90, 120, 150, 180, and 210 min after the second drug injection. In addition, a fixed fractional dose ratio of 1:1 (w:w) is used for the combination of T-62 with morphine and NBQX. The dose response curves are then constructed for the combined drugs, and the ED40 values of the combined drugs are calculated at the time point of peak effect. Subsequently, isobolograms are constructed based on the ED40 values from single and combined drug administration.\nMaterials: T-62 may be obtained from King Pharmaceuticals (Cary, N.C.). T-62 is dissolved in saline with 20% DMSO. Morphine may be purchased from Astra Pharmaceutical Products, Inc. (Westborough, Mass.). NBQX and the remaining chemicals may be purchased from Sigma Chemical Co. (St. Louis, Mo.). Saline is used as vehicle for morphine and NBQX.\nData analysis: Data are presented as mean ±S.E. Withdrawal threshold data are analyzed by two-way analysis of variance followed by Fisher's LSD test. P<0.05 is considered significant. Isobolograms are statistically analyzed by student T test."}}, "note": "Entries after “also recorded” stand apart in the source; their conditions may differ."}
{"smiles": "Nc1sc2c(c1C(=O)c1ccc(Cl)cc1)CCCC2", "note": "[T-62, (2-amino-4,5,6,7-tetrahydrobenzo[b]thiophen-3-yl)(4-chlorophenyl)methanone]", "values": [{"measurement": "anti-allodynic effect (withdrawal threshold)", "setting": "male Sprague-Dawley rats", "result": "dose-dependent anti-allodynic effects"}, {"measurement": "effect on inflammatory and neuropathic pain", "setting": "adenosine A1 receptors", "result": "reduce inflammatory and neuropathic pain"}, {"measurement": "anti-hypersensitivity effect (mechanical hypersensitivity), single drug", "setting": "adult male rats", "result": "modest effect; also recorded: reduced mechanical hypersensitivity in a time dependent manner"}]}
{"smiles": "CN1CC[C@]23c4c5ccc(O)c4O[C@H]2[C@@H](O)C=C[C@H]3[C@H]1C5", "note": "[Morphine, morphine]", "values": [{"measurement": "time of peak effect after injection", "setting": "adult male rats", "result": 30, "unit": "min"}, {"measurement": "anti-hypersensitivity effect (mechanical hypersensitivity), single drug", "setting": "adult male rats", "result": "reduces mechanical hypersensitivity in a time and dose dependent manner"}]}
{"smiles": "Nc1sc2c(c1C(=O)c1ccccc1)CCS2", "note": "[formula (Ib)]", "values": [{"measurement": "anti-allodynic effect (withdrawal threshold)", "setting": "male Sprague-Dawley rats", "result": "dose-dependent anti-allodynic effects"}]}
{"smiles": "Nc1sc2c(c1C(=O)c1cccc3ccccc13)CCC2", "note": "[formula (Ic)]", "values": [{"measurement": "relative potency among the three enhancers", "setting": "male Sprague-Dawley rats; Chung model of chronic neuropathic pain, FIG. 8", "result": "most potent"}, {"measurement": "anti-allodynic effect (withdrawal threshold)", "setting": "male Sprague-Dawley rats", "result": "dose-dependent anti-allodynic effects"}]}
{"smiles": "NS(=O)(=O)c1cccc2c1c([N+](=O)[O-])cc1nc(O)c(O)nc12", "note": "[NBQX, 2,3-dihydroxy-6-nitro-7-sulfamoylbenzo(f)quinoxaline]", "values": [{"measurement": "time of peak effect after injection", "setting": "adult male rats", "result": 30, "unit": "min"}, {"measurement": "anti-hypersensitivity effect (mechanical hypersensitivity), single drug", "setting": "adult male rats", "result": "reduces the mechanical hypersensitivity in a time and dose dependent manner"}]}
